The values that follow come from US5227163A, “Lice-repellant compositions” (priority 1992, dated 1993).

The experiment relates to lice. The experiment can be described thus: Standard in vitro test on filter paper (petri-dish lice repellency). The note with it: 10 min, 20±3° C. As to the method:
Screening tests were performed on many substances of the following groups: terpenes (hydrocarbons), terpenoid alcohols, terpenoid esters, terpenoid aldehydes and ketones, essential oils which contain terpenoids and perfumes which contain terpenoids, as well as various general insect repellents, for lice-repellency. Each experiment included exposure of the lice to different concentrations of the tested substance, and measuring the dose response of those materials.
A petri-dish method was used to examine the repellency of the solutions for lice. A filter paper (Whatman No. 4, 5.5 cm in diameter) was secured in a petri-dish. A 100 μl portion of the test solution was placed on a corduroy patch (1.5 cm^2). The material was allowed to dry for 30 min. at room temperature (20±3° C.) and the patch was placed at the periphery of the petri-dish. A patch treated with a control solution (96% Ethanol) was placed on the opposite side of the dish. Twenty female lice which had been fed 24 hours previously were placed in the middle of the dish. A box was placed over the dish and it was covered with a dark cloth in order to keep the test area in the dark. The experiment was carried out at room temperature (20°±3° C.) and lasted 10 min. The number of lice on the treated and controlled patches as well as on the area between the patches was recorded in a protocol. The experiment was repeated three times for each sample.
% repellency was calculated by the following formula:
where: T=number of lice on the treated patch
C=number of lice on the untreated patch
The following terms were recorded:
RC80 =Concentration giving 80% repellency.
RC50 =Concentration giving 50% repellency.
RD80 =mg/cm^2 giving 80% repellency.
RD50 =mg/cm^2 giving 50% repellency.
As for `CC1=CC=C(C(C)C)CC1`, the “RC50 (Concentration giving 50% repellency)” value worked out at 0.900%, the “RC80 (Concentration giving 80% repellency)” value is on record as 1.500% and the “RD80 (mg/cm^2 giving 80% repellency)” value was 1.050 mg/cm^2.

Take `CC(=O)O[C@@H]1C[C@H]2CC[C@]1(C)C2(C)C` (racemic) [ISO BORNYL ACETATE]: the “RC50 (Concentration giving 50% repellency)” value is recorded as 0.600%, the “RC80 (Concentration giving 80% repellency)” value was found to be 0.800% and the “RD80 (mg/cm^2 giving 80% repellency)” value came out at 0.560 mg/cm^2.

With `C=C(C)[C@H]1CC=C(C)CC1` [+ LIMONENE], the “RC50 (Concentration giving 50% repellency)” value was 2.000%, the “RC80 (Concentration giving 80% repellency)” value is 3.000% and the “RD80 (mg/cm^2 giving 80% repellency)” value came out at 2.100 mg/cm^2.

Consider `C=C(C)[C@@H]1CC=C(C)CC1` [- LIMONENE], for which the “RC50 (Concentration giving 50% repellency)” value is given as 3.000%, the “RC80 (Concentration giving 80% repellency)” value is reported as 4.000% and the “RD80 (mg/cm^2 giving 80% repellency)” value amounted to 2.800 mg/cm^2.

Turning to `CC1=CCC2C(C1)C2(C)C` (centres unmarked) [CARENE], the “RC50 (Concentration giving 50% repellency)” value amounted to 1.000%, the “RC80 (Concentration giving 80% repellency)” value came to 2.000% and the “RD80 (mg/cm^2 giving 80% repellency)” value turned out to be 1.400 mg/cm^2.

For `C=C(C)C1CC=C(C)[C@@H](O)C1` (some centres unmarked) [CARVEOL, carveol], the “RC50 (Concentration giving 50% repellency)” value is given as 0.600%, the “RC80 (Concentration giving 80% repellency)” value was 1.500% and the “RD80 (mg/cm^2 giving 80% repellency)” value was found to be 1.050 mg/cm^2.

As to `C=C(C)C1CC=C(C)C(OC(=O)CC)C1` (centres unmarked) [CARVYL PROPRIONATE, carvyl propionate], the “RC50 (Concentration giving 50% repellency)” value is reported as 0.200%, the “RC80 (Concentration giving 80% repellency)” value turned out to be 0.600%, the “RD50 (mg/cm^2 giving 50% repellency)” value was found to be 0.140 mg/cm^2 and the “RD80 (mg/cm^2 giving 80% repellency)” value worked out at 0.420 mg/cm^2.

As for `CC(C)=CCCC(C)=CC=O` [CITRAL], the “RC50 (Concentration giving 50% repellency)” value is listed as 0.300%, the “RC80 (Concentration giving 80% repellency)” value came to 0.600% and the “RD80 (mg/cm^2 giving 80% repellency)” value is 0.420 mg/cm^2.

Consider `CC1(C)C2CCC(CO)C1C2` (stereo not drawn) [Cis MYRTANOL], for which the “RC50 (Concentration giving 50% repellency)” value turned out to be 0.600%, the “RC80 (Concentration giving 80% repellency)” value amounted to 1.000%, the “RD50 (mg/cm^2 giving 50% repellency)” value amounted to 0.420 mg/cm^2 and the “RD80 (mg/cm^2 giving 80% repellency)” value was determined as 0.700 mg/cm^2.

Take `CC1=CC(O)C2CC1C2(C)C` (stereo not drawn) [Cis VERBENOL, cis-verbenol]: the “RC50 (Concentration giving 50% repellency)” value amounted to 1.000%, the “RC80 (Concentration giving 80% repellency)” value stood at 2.000%, the “RD50 (mg/cm^2 giving 50% repellency)” value came out at 0.700 mg/cm^2 and the “RD80 (mg/cm^2 giving 80% repellency)” value is reported as 1.400 mg/cm^2.

For the compound `C=C(C)C1CCC(C)C(O)C1` (centres unmarked) [DIHYDRO CARVEOL, dihydrocarveol], the “RC50 (Concentration giving 50% repellency)” value was 0.400%, the “RC80 (Concentration giving 80% repellency)” value came out at 0.900%, the “RD50 (mg/cm^2 giving 50% repellency)” value is on record as 0.280 mg/cm^2 and the “RD80 (mg/cm^2 giving 80% repellency)” value turned out to be 0.630 mg/cm^2.

Regarding `C=C(C)C1CCC(C)C(=O)C1` (centres unmarked) [DIHYDRO CARVONE], the “RC50 (Concentration giving 50% repellency)” value stood at 0.200%, the “RC80 (Concentration giving 80% repellency)” value worked out at 0.500% and the “RD80 (mg/cm^2 giving 80% repellency)” value was found to be 0.350 mg/cm^2.

Take `C=CC(C)CCCC(C)(C)O` (centres unmarked) [DIHYDRO MYRCENOL, dihydro-myrcenol]: the “RC50 (Concentration giving 50% repellency)” value is 0.600%, the “RC80 (Concentration giving 80% repellency)” value is reported as 0.800% and the “RD80 (mg/cm^2 giving 80% repellency)” value is 0.560 mg/cm^2.

As for `C=C(C)C1CCC(C)C(OC(C)=O)C1` (centres unmarked) [DIH[…]], the “RC50 (Concentration giving 50% repellency)” value was found to be 0.150%, the “RC80 (Concentration giving 80% repellency)” value is recorded as 0.300%, the “RD50 (mg/cm^2 giving 50% repellency)” value was 0.105 mg/cm^2 and the “RD80 (mg/cm^2 giving 80% repellency)” value is 0.210 mg/cm^2.

On to `CC(C)=CCC/C(C)=C/CO` [GERANIOL, geraniol], for which the “RC50 (Concentration giving 50% repellency)” value is recorded as 0.005%, the “RC80 (Concentration giving 80% repellency)” value amounted to 0.020% and the “RD80 (mg/cm^2 giving 80% repellency)” value was determined as 0.014 mg/cm^2.

As for `CC1C(O)CC2CC1C2(C)C` (centres unmarked) [ISOPINO-CAMPHEOL, iso-pinocampheol], the “RC50 (Concentration giving 50% repellency)” value is recorded as 0.200%, the “RC80 (Concentration giving 80% repellency)” value is listed as 0.300%, the “RD50 (mg/cm^2 giving 50% repellency)” value stood at 0.140 mg/cm^2 and the “RD80 (mg/cm^2 giving 80% repellency)” value was 0.210 mg/cm^2.

Turning to `C=C(C)[C@@H]1CC[C@@H](C)C[C@H]1O` [ISOPULEGOL, isopulegol], the “RC50 (Concentration giving 50% repellency)” value stood at 0.500%, the “RC80 (Concentration giving 80% repellency)” value was found to be 0.800% and the “RD80 (mg/cm^2 giving 80% repellency)” value turned out to be 0.560 mg/cm^2.

In the case of `C=CC(C)(O)CCC=C(C)C` (centres unmarked) [LINALOOL, linalool], the “RC50 (Concentration giving 50% repellency)” value is listed as 0.020%, the “RC80 (Concentration giving 80% repellency)” value is recorded as 0.080% and the “RD80 (mg/cm^2 giving 80% repellency)” value worked out at 0.056 mg/cm^2.

With `CC1CCC(C(C)C)C(O)C1` (centres unmarked) [MENTHOL, menthol], the “RC50 (Concentration giving 50% repellency)” value was 0.030%, the “RC80 (Concentration giving 80% repellency)” value is reported as 0.150% and the “RD80 (mg/cm^2 giving 80% repellency)” value stood at 0.105 mg/cm^2.

Take `CC1CCC(C(C)C)C(OC(=O)C(C)O)C1` (centres unmarked) [MENTHYL LACTATE, menthyl lactate]: the “RC50 (Concentration giving 50% repellency)” value turned out to be 0.050%, the “RC80 (Concentration giving 80% repellency)” value is reported as 0.100% and the “RD80 (mg/cm^2 giving 80% repellency)” value came to 0.070 mg/cm^2.

For `CC1(C)C2CC=C(CO)C1C2` (centres unmarked) [MYRTENOL, myrtenol], the “RC50 (Concentration giving 50% repellency)” value is given as 0.500%, the “RC80 (Concentration giving 80% repellency)” value is recorded as 0.900%, the “RD50 (mg/cm^2 giving 50% repellency)” value came to 0.350 mg/cm^2 and the “RD80 (mg/cm^2 giving 80% repellency)” value came out at 0.630 mg/cm^2.

On to `CC(C)=CCC/C(C)=C\CO` [NEROL, nerol], for which the “RC50 (Concentration giving 50% repellency)” value worked out at 0.500%, the “RC80 (Concentration giving 80% repellency)” value came out at 0.800% and the “RD80 (mg/cm^2 giving 80% repellency)” value amounted to 0.560 mg/cm^2.

For the compound `C=C(C)[C@@H]1CC=C(CO)CC1` [PERILLIL ALCOHOL, perillyl alcohol], the “RC50 (Concentration giving 50% repellency)” value is recorded as 0.010%, the “RC80 (Concentration giving 80% repellency)” value turned out to be 0.030% and the “RD80 (mg/cm^2 giving 80% repellency)” value is recorded as 0.020 mg/cm^2.

Regarding `CC(C)=C1CC[C@@H](C)CC1=O` [PULEGONE], the “RC50 (Concentration giving 50% repellency)” value turned out to be 0.400%, the “RC80 (Concentration giving 80% repellency)” value is 0.700% and the “RD80 (mg/cm^2 giving 80% repellency)” value is 0.490 mg/cm^2.

On to `CC1=CCC(O)(C(C)C)CC1` (centres unmarked) [terpinen-4-ol], for which the “RC50 (Concentration giving 50% repellency)” value came to 0.020%, the “RC80 (Concentration giving 80% repellency)” value worked out at 0.090% and the “RD80 (mg/cm^2 giving 80% repellency)” value is 0.063 mg/cm^2.

In the case of `C=C1CCC2CC1C2(C)C` (stereo not drawn) [β PINENE], the “RC50 (Concentration giving 50% repellency)” value was 0.200%, the “RC80 (Concentration giving 80% repellency)” value was 1.100% and the “RD80 (mg/cm^2 giving 80% repellency)” value came out at 0.770 mg/cm^2.

On to `CC(C)=CCCC(C)CCO` (stereo not drawn) [β-CITRONELLOL, β-citronellol], for which the “RC50 (Concentration giving 50% repellency)” value is 0.020%, the “RC80 (Concentration giving 80% repellency)” value is 0.070% and the “RD80 (mg/cm^2 giving 80% repellency)” value came to 0.049 mg/cm^2.

As to IONONE, the “RC50 (Concentration giving 50% repellency)” value is 0.250%, the “RC80 (Concentration giving 80% repellency)” value is 0.600%, the “RD50 (mg/cm^2 giving 50% repellency)” value worked out at 0.170 mg/cm^2 and the “RD80 (mg/cm^2 giving 80% repellency)” value stood at 0.420 mg/cm^2.
